Experimental data from patent US6403343B2, “Method of producing a taxane-type diterpene and a method of obtaining cultured cells which produce the taxane-type dilterpene at a high rate” (Mitsui Chemicals, Inc., priority 1993, dated 2002).
Read-outs that look alike come from different tables or passages of the source.

How the values were obtained:
[1] = test system: cultured cells of Taxus baccata LINN; experiment: Growth rate and taxane yield, 21-day shake culture of Taxus baccata cells with heavy metal compound, amine, antiethylene agent or Ethrel added; type: cell-based
[2] = test system: cultured cells of Taxus baccata LINN; settings: 2 mM in medium
Description: The procedure of Example 78 was carried out except that the nutrition source was not added midway.

[3] = test system: cultured cells of Taxus baccata LINN; settings: 3 mM in fresh medium, continuous culture
Description: The amount of the taxol contained in the cells and the medium were measured in the same manner as that used in Example 1.

[4] = 2×10^−4 M added 5 times at 4 days' intervals from day 0, total 10^−3 M
[5] = 10^−1 M added at start, 21 days
[6] = 10^−2 M added at start, 21 days
[7] = 10^−3 M added at start, 21 days
[8] = 10^−3 M added on 7th day, 14 more days
[9] = 10^−3 M added on 14th day, 7 more days
[10] = 10^−3 M added on 18th day, 3 more days
[11] = 10^−3 M at start + methyl jasmonate 10^−4 M on 14th day
[12] = 10^−3 M at start + methyl jasmonate 10^−4 M on 14th day, oxygen 10% in the gas phase
[13] = 10^−3 M at start, oxygen 10% in the gas phase
[14] = 10^−4 M added at start, 21 days
[15] = 10^−5 M added at start, 21 days
[16] = 10^−6 M added at start, 21 days
[17] = 10^−7 M added at start, 21 days
[18] = 10^−8 M added at start, 21 days
[19] = 10^−9 M added at start, 21 days
[20] = nutrition source added continuously day 2-14, 21 days
[21] = nutrition source not added midway, 21 days

SMILES: O=S([O-])([O-])=S.[Ag+].[Ag+] [silver thiosulfate, [Ag(S2O3)2]^3−]
- growth rate ([1]; 1 M added at start, 21 days): 1.2 times
- total yield of taxane ([1]; 1 M added at start, 21 days): 0.64 mg/L
- yield of baccatin III ([1]; 1 M added at start, 21 days): 0.08 mg/L
- yield of cephalomannine ([1]; 1 M added at start, 21 days): 0.36 mg/L
- yield of taxol ([1]; 1 M added at start, 21 days): 0.20 mg/L
- growth rate [1, 4]: 2.4 times
- total yield of taxane [1, 4]: 32.36 mg/L
- yield of baccatin III [1, 4]: 4.15 mg/L
- yield of cephalomannine [1, 4]: 7.27 mg/L
- yield of taxol [1, 4]: 20.94 mg/L
- growth rate [1, 5]: 1.9 times
- total yield of taxane [1, 5]: 3.78 mg/L
- yield of baccatin III [1, 5]: 0.26 mg/L
- yield of cephalomannine [1, 5]: 2.15 mg/L
- yield of taxol [1, 5]: 1.37 mg/L
- growth rate [1, 6]: 2.3 times
- total yield of taxane [1, 6]: 12.02 mg/L
- yield of baccatin III [1, 6]: 0.72 mg/L
- yield of cephalomannine [1, 6]: 5.50 mg/L
- yield of taxol [1, 6]: 5.80 mg/L
- growth rate [1, 7]: 2.7 times
- total yield of taxane [1, 7]: 58.99 mg/L
- yield of baccatin III [1, 7]: 27.90 mg/L
- yield of cephalomannine [1, 7]: 5.96 mg/L
- yield of taxol [1, 7]: 25.13 mg/L
- growth rate [1, 8]: 2.2 times
- total yield of taxane [1, 8]: 27.21 mg/L
- yield of baccatin III [1, 8]: 11.71 mg/L
- yield of cephalomannine [1, 8]: 4.86 mg/L
- yield of taxol [1, 8]: 10.64 mg/L
- growth rate [1, 9]: 2.5 times
- total yield of taxane [1, 9]: 10.59 mg/L
- yield of baccatin III [1, 9]: 2.29 mg/L
- yield of cephalomannine [1, 9]: 3.83 mg/L
- yield of taxol [1, 9]: 4.47 mg/L
- growth rate [1, 10]: 2.9 times
- total yield of taxane [1, 10]: 3.27 mg/L
- yield of baccatin III [1, 10]: 0.28 mg/L
- yield of cephalomannine [1, 10]: 1.44 mg/L
- yield of taxol [1, 10]: 1.55 mg/L
- growth rate [1, 11]: 2.7 times
- total yield of taxane [1, 11]: 71.32 mg/L
- yield of baccatin III [1, 11]: 25.14 mg/L
- yield of cephalomannine [1, 11]: 12.57 mg/L
- yield of taxol [1, 11]: 33.61 mg/L
- growth rate [1, 12]: 2.7 times
- total yield of taxane [1, 12]: 74.07 mg/L
- yield of baccatin III [1, 12]: 27.00 mg/L
- yield of cephalomannine [1, 12]: 12.34 mg/L
- yield of taxol [1, 12]: 34.73 mg/L
- growth rate [1, 13]: 2.7 times
- total yield of taxane [1, 13]: 59.34 mg/L
- yield of baccatin III [1, 13]: 22.81 mg/L
- yield of cephalomannine [1, 13]: 9.08 mg/L
- yield of taxol [1, 13]: 27.45 mg/L
- growth rate [1, 14]: 2.7 times
- total yield of taxane [1, 14]: 27.26 mg/L
- yield of baccatin III [1, 14]: 7.62 mg/L
- yield of cephalomannine [1, 14]: 5.11 mg/L
- yield of taxol [1, 14]: 14.53 mg/L
- growth rate [1, 15]: 2.7 times
- total yield of taxane [1, 15]: 13.18 mg/L
- yield of baccatin III [1, 15]: 1.13 mg/L
- yield of cephalomannine [1, 15]: 4.10 mg/L
- yield of taxol [1, 15]: 7.95 mg/L
- growth rate [1, 16]: 2.6 times
- total yield of taxane [1, 16]: 5.72 mg/L
- yield of baccatin III [1, 16]: 1.06 mg/L
- yield of cephalomannine [1, 16]: 2.86 mg/L
- yield of taxol [1, 16]: 1.80 mg/L
- growth rate [1, 17]: 2.7 times
- total yield of taxane [1, 17]: 4.38 mg/L
- yield of baccatin III [1, 17]: 0.34 mg/L
- yield of cephalomannine [1, 17]: 2.47 mg/L
- yield of taxol [1, 17]: 1.57 mg/L
- growth rate [1, 18]: 2.8 times
- total yield of taxane [1, 18]: 2.02 mg/L
- yield of baccatin III [1, 18]: 0.29 mg/L
- yield of cephalomannine [1, 18]: 0.97 mg/L
- yield of taxol [1, 18]: 0.76 mg/L
- growth rate [1, 19]: 2.7 times
- total yield of taxane [1, 19]: 1.09 mg/L
- yield of baccatin III [1, 19]: 0.20 mg/L
- yield of cephalomannine [1, 19]: 0.56 mg/L
- yield of taxol [1, 19]: 0.33 mg/L
- yield of cells [2, 20]: 38 g dried weight/l
- yield of taxol from cells [2, 20]: 31 mg/L
- yield of taxol from medium [2, 20]: 89 mg/L
- yield of taxol total [2, 20]: 125 mg/L
- yield of cells [2, 21]: 22 g dried weight/l
- yield of taxol from cells [2, 21]: 33 mg/L
- yield of taxol from medium [2, 21]: 27 mg/L
- yield of taxol total [2, 21]: 60 mg/L
- productivity of taxol ([3]; stationary state): 8.8 mg/L/day
- taxol produced ([3]; stationary state of 60 days): 525 mg
